Values of other authors in patent US20260158011A1 (Achieve Life Sciences, Inc., priority 2023, published 2026).
Like-named read-outs stand apart in the source and are kept apart here.

Experiments:
smokers [1] = details: Cochrane, Chantix (n > 7000); cited from earlier work
smokers [2] = details: cited from earlier work
[3] = target: neuronal alpha4, beta2 (α4β2) receptors (Homo sapiens, UniProt P17787+P43681); details: background studies; cited from earlier work
Sequence of neuronal alpha4, beta2 (α4β2) receptors (P43681 29-627 limits assumed): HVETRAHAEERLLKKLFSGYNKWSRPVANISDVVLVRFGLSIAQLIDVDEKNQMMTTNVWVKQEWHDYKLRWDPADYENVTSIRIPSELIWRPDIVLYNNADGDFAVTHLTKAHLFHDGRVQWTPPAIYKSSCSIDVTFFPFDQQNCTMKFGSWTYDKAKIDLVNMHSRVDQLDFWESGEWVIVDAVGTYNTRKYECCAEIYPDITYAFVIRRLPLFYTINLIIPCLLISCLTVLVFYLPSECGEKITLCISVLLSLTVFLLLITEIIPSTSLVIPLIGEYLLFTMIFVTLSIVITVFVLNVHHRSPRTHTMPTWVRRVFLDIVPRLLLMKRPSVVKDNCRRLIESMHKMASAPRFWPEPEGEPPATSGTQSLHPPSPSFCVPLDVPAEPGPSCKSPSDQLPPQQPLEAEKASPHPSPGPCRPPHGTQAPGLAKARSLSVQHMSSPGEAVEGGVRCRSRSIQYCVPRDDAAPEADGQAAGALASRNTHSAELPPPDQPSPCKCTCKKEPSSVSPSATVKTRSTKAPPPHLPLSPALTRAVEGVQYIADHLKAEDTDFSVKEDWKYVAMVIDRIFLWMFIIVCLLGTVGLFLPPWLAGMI
Sequence of neuronal alpha4, beta2 (α4β2) receptors (P17787 26-502): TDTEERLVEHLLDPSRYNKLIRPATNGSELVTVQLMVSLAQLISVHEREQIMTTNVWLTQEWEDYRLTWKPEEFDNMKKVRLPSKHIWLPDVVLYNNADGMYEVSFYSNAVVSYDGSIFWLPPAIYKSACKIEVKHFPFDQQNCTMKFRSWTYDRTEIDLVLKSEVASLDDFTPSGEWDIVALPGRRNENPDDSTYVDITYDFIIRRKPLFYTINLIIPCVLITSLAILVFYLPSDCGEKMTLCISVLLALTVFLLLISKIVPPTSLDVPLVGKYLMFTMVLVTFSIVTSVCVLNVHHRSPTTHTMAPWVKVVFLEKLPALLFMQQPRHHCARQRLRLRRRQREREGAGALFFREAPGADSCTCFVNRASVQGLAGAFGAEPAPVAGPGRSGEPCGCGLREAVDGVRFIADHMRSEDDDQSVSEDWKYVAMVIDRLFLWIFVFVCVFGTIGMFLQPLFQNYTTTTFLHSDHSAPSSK

For c1cnc2cc3c(cc2n1)[C@@H]1CNC[C@H]3C1 [Chantix ®, varenicline], the “Serious AEs” value (smokers [1]) is given as 3.3%, the “TEAE: Abnormal dreams” value (smokers [1]) is given as 12.5% and the “TEAE: Headache” value (smokers [1]) is given as 12.7%. The “TEAE: Insomnia” value (smokers [1]) was 14.2%, the “TEAE: Nausea” value (smokers [1]) was 27.8% and the “OR at End of Treatment” value (smokers [2]; Chantix 12 weeks (EAGLES), versus placebo) was 4.0. For the same compound, the “Drug-placebo difference in quit rate at End of Treatment” value (smokers [2]; Chantix 12 weeks (EAGLES)) was 24.3%, the “Quit Rate at End of Treatment” value (smokers [2]; Chantix 12 weeks (EAGLES)) was 38.0% and the “OR at 4 Weeks Off Treatment” value (smokers [2]; Chantix (EAGLES), versus placebo) was 3.5. The “Drug-placebo difference in quit rate at 4 Weeks Off Treatment” value (smokers [2]; Chantix (EAGLES)) was 20.7%, the “Quit Rate at 4 Weeks Off Treatment” value (smokers [2]; Chantix (EAGLES)) was 33.2% and the “OR at 4 Weeks Treatment” value (smokers [2]; Chantix (ONCKEN), versus placebo) was 3.1. For the same compound, the “Drug-placebo difference in quit rate at 4 Weeks Treatment” value (smokers [2]; Chantix (ONCKEN)) was 21.4%, the “Quit Rate at 4 Weeks Treatment” value (smokers [2]; Chantix (ONCKEN)) was 37.7% and the “Quit rate at 24 weeks” value (smokers [2]; EAGLES, U.S. patients (N=1065)) was 16%. The “Overall quit rate at 24 weeks” value (smokers [2]; EAGLES, all regions) was 22%, the “CAR weeks 9-24 % (95% CI)” value (smokers [2]; EAGLES, region Non-U.S.) was 27.9 (25.2-30.8) % (95% CI) and the “Versus placebo OR (95% CI), CAR weeks 9-24” value (smokers [2]; EAGLES, region Non-U.S.) was 2.80 (2.20-3.55). The “CAR weeks 9-24 % (95% CI)” value (smokers [2]; EAGLES, region U.S.) was 16.1 (14.0-18.4) % (95% CI) and the “Versus placebo OR (95% CI), CAR weeks 9-24” value (smokers [2]; EAGLES, region U.S.) was 2.66 (1.99-3.55).

For CN1CCCC1c1cccnc1 (stereo not drawn) [nicotine, reference compound], the “Binding to α4β2 receptors” value [3] is given as “bind strongly and preferentially”.
